The record followed here is ChEMBL document CHEMBL1201862, “PubChem BioAssay data set” (2004).

The target in experiment [1] is T1, Polyadenylate-binding protein 1 (Homo sapiens, UniProt P11940). The experiment is described as follows: PABP1 MLLE–PAM2 interaction inhibitors, dose response, miRNA deadenylation inhibitor project, biochemical, fluorescence polarization, Cy5-PAM2 peptide, secondary (AID 602260). It counts as functional. To be noted: read-out: IC50_Mean. A general note: In fluorescence polarisation assays a small probe gives low polarisation when free and higher when bound to something large.
T1 sequence (P11940 whole entry): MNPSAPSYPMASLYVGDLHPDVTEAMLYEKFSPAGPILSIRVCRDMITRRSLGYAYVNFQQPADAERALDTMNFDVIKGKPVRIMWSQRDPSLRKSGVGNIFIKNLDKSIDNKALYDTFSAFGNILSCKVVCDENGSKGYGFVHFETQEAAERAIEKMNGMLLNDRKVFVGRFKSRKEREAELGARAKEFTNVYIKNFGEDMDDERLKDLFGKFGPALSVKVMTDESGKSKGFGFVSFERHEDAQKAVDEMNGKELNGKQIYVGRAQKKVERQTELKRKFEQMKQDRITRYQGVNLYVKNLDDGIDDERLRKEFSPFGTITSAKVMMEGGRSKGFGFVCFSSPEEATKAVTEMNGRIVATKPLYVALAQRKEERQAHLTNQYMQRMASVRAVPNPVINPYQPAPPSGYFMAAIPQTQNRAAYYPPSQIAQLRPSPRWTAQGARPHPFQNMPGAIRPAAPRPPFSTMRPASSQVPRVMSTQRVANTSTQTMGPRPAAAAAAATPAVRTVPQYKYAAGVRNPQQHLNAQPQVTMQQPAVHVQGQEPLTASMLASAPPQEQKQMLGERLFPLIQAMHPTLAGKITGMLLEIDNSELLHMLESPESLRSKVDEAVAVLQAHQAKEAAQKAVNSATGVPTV

Experiment [2] deals with T1, Polyadenylate-binding protein 1. The experiment in a line: PABP1 MLLE–PAM2 binding inhibitor potency, dose response, biochemical, fluorescence polarization, FITC-PAM2 peptide (AID 602259). It counts as functional. To be noted: read-out: IC50_Mean.
The nature of experiment [3]: Shn3 3'UTR reporter inhibitors, dose response, cell-based, Clone20 osteoblasts, firefly luciferase, cherry-picked (AID 624132).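 Further: firefly luciferase luminescence from reporter carrying the Shn3 3'UTR in osteoblasts.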 It counts as functional.
Experiment [4] is described as follows: control 3'UTR Renilla luciferase suppression, dose response, counter-screen for Shn3 inhibitor project, cell-based, Clone20-Shn3RL, cherry-picked (AID 624133). It counts as functional.
The target of experiment [5] is T2, Heat shock factor protein 1 (Mus musculus, UniProt P38532).
T2 sequence (P38532 whole entry): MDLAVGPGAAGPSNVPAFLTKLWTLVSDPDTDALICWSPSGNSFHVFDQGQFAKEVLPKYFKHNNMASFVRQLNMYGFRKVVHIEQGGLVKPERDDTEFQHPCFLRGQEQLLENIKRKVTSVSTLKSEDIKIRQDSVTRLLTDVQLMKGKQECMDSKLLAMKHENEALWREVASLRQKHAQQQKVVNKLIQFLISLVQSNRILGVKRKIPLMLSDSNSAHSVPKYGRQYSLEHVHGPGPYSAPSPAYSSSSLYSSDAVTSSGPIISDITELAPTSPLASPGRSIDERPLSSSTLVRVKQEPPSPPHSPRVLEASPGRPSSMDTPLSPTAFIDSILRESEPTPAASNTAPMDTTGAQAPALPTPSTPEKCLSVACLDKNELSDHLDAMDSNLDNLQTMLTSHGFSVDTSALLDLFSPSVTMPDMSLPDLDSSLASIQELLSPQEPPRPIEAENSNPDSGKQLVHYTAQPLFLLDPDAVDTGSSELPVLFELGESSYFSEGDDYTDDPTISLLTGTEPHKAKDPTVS
The experiment in a line: HSF1 potentiators in luciferase reporter cells, confirmation, cell-based, NIH3T3, luminescence, dose retest (AID 435004).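 Further: stress induced by proteasome inhibitor MG132 added 30 min after compound; luciferase reporter driven by HSF1 response element in NIH3T3 cells; actives raise luminescence as potentiators of the MG132 stress response.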 Format: functional. For orientation: Reporter assays use an easily measured gene product as a stand-in for the process of interest.

Experiment [6] deals with T2, Heat shock factor protein 1. The experiment is described as follows: inhibition of MG132-induced HSE-luciferase signal, confirmation, cell-based, NIH3T3, luminescence, dose retest (AID 2382).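 Further: NIH3T3 fibroblasts with HSF1-driven luciferase reporter stressed by proteasome inhibitor MG132; luminescence from HSF1-driven luciferase expression after 8 hours of MG132 stress.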 It counts as functional.
Experiment [7] is described as follows: microbe, parasite or virus in culture. Format: functional. The conditions noted are these: Mycobacterium tuberculosis.
Experiment [8] addresses Luciferin 4-monooxygenase (Photinus pyralis, UniProt P08659). The experiment is described as follows: firefly luciferase enzyme inhibitors, dose response, biochemical, luminescence (AID 1891).
Experiment [9] can be described thus: Luminescence Cell-Based Dose Confirmation HTS to Identify Inhibitors of Platelet Dense Granule Release. [Related pubchem assays: 1663 (Primary HTS), 1678 (Summary of Project)]. It counts as functional.
The target in experiment [10] is T3, Replicative DNA helicase DnaB (Mycobacterium tuberculosis, UniProt P9WMR3).
T3 sequence (P9WMR3 whole entry): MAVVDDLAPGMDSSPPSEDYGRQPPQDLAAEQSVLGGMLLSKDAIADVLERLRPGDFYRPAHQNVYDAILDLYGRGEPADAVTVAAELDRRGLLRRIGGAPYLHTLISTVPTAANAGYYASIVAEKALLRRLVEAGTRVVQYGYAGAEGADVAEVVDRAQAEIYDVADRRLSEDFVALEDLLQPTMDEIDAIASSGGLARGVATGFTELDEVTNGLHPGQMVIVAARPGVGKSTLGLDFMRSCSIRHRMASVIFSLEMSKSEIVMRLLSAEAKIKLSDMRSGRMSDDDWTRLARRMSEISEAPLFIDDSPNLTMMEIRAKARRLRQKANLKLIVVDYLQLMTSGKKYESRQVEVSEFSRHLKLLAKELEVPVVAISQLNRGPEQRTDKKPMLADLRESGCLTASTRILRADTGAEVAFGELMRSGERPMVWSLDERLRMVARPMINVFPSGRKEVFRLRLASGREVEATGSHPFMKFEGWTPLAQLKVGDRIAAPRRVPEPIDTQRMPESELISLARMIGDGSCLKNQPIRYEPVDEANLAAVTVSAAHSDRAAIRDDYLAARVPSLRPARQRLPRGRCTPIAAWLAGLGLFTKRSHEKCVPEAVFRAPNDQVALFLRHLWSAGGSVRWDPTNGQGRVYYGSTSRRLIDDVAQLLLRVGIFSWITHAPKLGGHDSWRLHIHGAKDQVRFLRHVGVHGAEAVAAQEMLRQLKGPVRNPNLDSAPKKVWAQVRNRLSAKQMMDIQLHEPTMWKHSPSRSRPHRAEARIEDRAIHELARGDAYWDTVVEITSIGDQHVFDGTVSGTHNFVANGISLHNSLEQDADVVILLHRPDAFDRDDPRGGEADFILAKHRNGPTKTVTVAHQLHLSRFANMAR
The experiment in a line: DnaB intein splicing inhibitors, dose response, biochemical, cell-free fluorescence (AID 449749). Format: functional.

The next experiment addresses T4, Protein RecA (Mycobacterium tuberculosis, UniProt P9WHJ3).
T4 sequence (P9WHJ3 whole entry): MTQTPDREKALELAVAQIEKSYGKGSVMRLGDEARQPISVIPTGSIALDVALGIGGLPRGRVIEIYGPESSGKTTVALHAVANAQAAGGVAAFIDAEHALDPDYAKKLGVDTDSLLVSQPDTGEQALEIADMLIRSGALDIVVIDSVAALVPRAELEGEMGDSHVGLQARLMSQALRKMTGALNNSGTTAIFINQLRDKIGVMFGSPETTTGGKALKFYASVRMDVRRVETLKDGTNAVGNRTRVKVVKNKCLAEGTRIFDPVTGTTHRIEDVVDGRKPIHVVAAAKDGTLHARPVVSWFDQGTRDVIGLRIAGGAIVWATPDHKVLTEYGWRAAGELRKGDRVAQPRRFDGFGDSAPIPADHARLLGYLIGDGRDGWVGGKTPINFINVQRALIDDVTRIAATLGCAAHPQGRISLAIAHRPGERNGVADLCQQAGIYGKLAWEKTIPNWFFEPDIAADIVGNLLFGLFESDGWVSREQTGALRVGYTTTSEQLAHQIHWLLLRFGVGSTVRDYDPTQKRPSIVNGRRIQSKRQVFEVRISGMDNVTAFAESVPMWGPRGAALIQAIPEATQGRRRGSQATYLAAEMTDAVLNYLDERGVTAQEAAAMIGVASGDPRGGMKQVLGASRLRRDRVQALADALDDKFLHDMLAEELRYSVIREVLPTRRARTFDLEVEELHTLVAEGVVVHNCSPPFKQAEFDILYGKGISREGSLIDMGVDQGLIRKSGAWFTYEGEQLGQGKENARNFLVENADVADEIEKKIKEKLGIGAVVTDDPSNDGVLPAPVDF
The experiment is described as follows: Fluorescence Cell-Free Homogeneous Dose Retest to Identify Inhibitors of RecA-Intein Splicing Activity. [Related pubchem assays (depositor defined):AID2097, AID2223, AID489010, AID492950]. Format: functional.

Experiment [11] can be described thus: Luminescence Cell-Based Dose Retest to Confirm Inhibitors of Cancer Stem Cells. [Related pubchem assays (depositor defined):AID2717, AID2721]. Format: functional. The conditions noted are these: Homo sapiens.
Another experiment concerns H9c2. The experiment is described as follows: cells. The conditions noted are these: Rattus norvegicus, H9c2, Myocardium. It counts as functional, cell-based.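 Further: confirmatory concentration-response retest of ultra-high-throughput screening hits for modulation of myocardial damage; cell death induced by hydrogen peroxide oxidative stress; compound pretreatment for 60 min then peroxide exposure for 2 h; potency is for protecting the cells against peroxide damage rather than for killing them.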

Active and inactive are the calls of the source.

Sequence of Luciferin 4-monooxygenase (P08659 whole entry): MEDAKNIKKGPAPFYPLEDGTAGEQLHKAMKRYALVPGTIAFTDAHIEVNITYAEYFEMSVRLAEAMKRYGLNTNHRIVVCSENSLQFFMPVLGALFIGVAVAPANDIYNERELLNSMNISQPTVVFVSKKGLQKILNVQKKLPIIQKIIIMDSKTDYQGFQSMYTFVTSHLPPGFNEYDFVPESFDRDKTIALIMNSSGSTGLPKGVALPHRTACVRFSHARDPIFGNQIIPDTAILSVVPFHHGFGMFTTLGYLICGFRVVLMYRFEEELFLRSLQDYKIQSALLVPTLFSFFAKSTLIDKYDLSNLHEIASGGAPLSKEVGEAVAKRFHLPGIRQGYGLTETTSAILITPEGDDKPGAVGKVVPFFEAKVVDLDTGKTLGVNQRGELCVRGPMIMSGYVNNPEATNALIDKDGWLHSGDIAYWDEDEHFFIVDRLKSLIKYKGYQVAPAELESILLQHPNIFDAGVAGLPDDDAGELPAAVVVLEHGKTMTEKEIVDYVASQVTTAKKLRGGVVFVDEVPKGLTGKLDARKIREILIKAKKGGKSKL

Turning to `CCOC1=C2CN(S(=O)(=O)c3ccc(C)cc3)[C@@H](c3ccccc3)C[C@H]2[C@H]2C(=O)N(c3ccccc3)C(=O)[C@H]2C1`, the IC50 is > 66 µM (inactive) in [1] and 51 µM (inactive) in experiment [2].
For `CCN(CC)CCCN1C(=O)CSC1c1ccc([N+](=O)[O-])cc1` (stereo not drawn), in that order: > 66 µM (inactive) and > 66 µM (inactive).
One may read the AC50 as the concentration at which the activity in the assay is half-maximal. Turning to `Cc1ccc2cc(CN(CC3CCCO3)C(=O)NC3CCCCC3)c(O)nc2c1C` (stereo not drawn), the AC50 is 4.49 µM (active) in [3] and 9.37 µM (active) in experiment [4].
For `COc1ccc(NC(=O)CC2Sc3ncnn3C2=O)cc1` (stereo not drawn), the IC50 in [1] and in experiment [2] was > 66 µM (inactive) throughout.
As a reminder, the EC50 is the midpoint of the concentration-response curve. As for `Cn1c(SCC(=O)NNC(=O)Nc2ccc(Cl)cc2)nnc1-c1ccccc1`, the EC50 in [5] was > 260 µM (inactive).
As to `CCN1C(NCCc2cccs2)=N[C@@H](c2cccs2)C(C(=O)OC)=C1C`, the EC50 in experiment [6] is > 195 µM (not active).
Still for that read-out and setting: as for `CC1=C(C(=O)Nc2ccccc2C)C(c2cccs2)NC(S)=N1` (stereo not drawn), the figure is > 195 µM (not active).
For `CN(Cc1ccc2c(c1)CCCN2C)C(=O)[C@H]1O[C@@H](n2ccc(=O)[nH]c2=O)[C@H](O)[C@@H]1O`, the IC50 in [1] and in experiment [2] was > 66 µM (inactive) each time.
Regarding `CCOc1ccc(CN(C)CC(O)COC(c2ccc(OC)cc2)c2ccc(OC)cc2)cc1` (stereo not drawn), the CC50 in experiment [7] is 26.6 µM (active). Besides, the EC50 in experiment [5] is > 260 µM (inactive).
For the compound `COc1ccc(NC(=O)NNC(=O)c2cc3occc3n2C)c(OC)c1`, in [5], the EC50 was > 260 µM (inactive).
For the compound `COC(=O)c1sccc1NC(=O)Nc1cccc(F)c1`, the 50% effective concentration (EC50) in experiment [8] was 0.93 µM (active); in [9], 4.6 µM (active); in experiment [5], 237 µM (active).
For the compound `CCC(c1nnnn1Cc1ccco1)N(Cc1cc2cc(OC)ccc2nc1O)C1CCCCC1` (stereo not drawn), the EC50 in [5] was 10.7 µM (active); at Protein RecA it was 40.2 µM (inconclusive). In addition, the AC50 in [10] is > 380 µM (inactive).
As to `CCN=C(S)NS(=O)(=O)c1ccc(C)cc1`, the IC50 in [1] and in experiment [2] was > 66 µM (inactive) throughout.
As to `Cc1ccccc1-n1c(=O)cc(N2CCc3ccccc32)[nH]c1=O`, in experiment [6], the EC50 is reported as > 195 µM (not active).
The same measure, in the same setting: with `COc1ccc(Cn2nnnc2C(c2ccccc2Cl)N2CCC(C(N)=O)CC2)cc1` (stereo not drawn) the figure was > 195 µM (not active).
With `Cc1ccc(CN(C)C(=O)C2CCC(=O)N(CCc3ccccc3)C2)o1` (stereo not drawn), the EC50 in [5] was > 260 µM (inactive).
In the case of `Cc1ccnc(SC2CC(=O)N(c3ccc([N+](=O)[O-])cc3)C2=O)n1` (stereo not drawn), the IC50 in experiment [1] and in experiment [2] was > 66 µM (inactive) throughout.
For the compound `CCOc1ccccc1N(C(=O)c1snc(C(N)=O)c1N)C(C(=O)NC1CCCC1)c1cccs1` (stereo not drawn), the IC50 in [1] and in experiment [2] was > 66 µM (inactive) throughout.
For `CCOc1ccccc1NC(=O)CCS(=O)(=O)c1cccs1`, in experiment [6], the EC50 is > 195 µM (not active).
Take `O=C(CCl)Nc1ccccc1C(=O)Nc1ccc2c(c1)OCO2`: the EC50 in experiment [8] was > 112 µM (not active); in experiment [9], 27.7 µM (active); on Protein RecA it was 13 µM (active). Moreover, in [10], the AC50 is 64.8 µM (active).
For the compound `CC1Cc2ccccc2N1C(=O)CSc1ncccc1C(=O)O` (stereo not drawn), in experiment [6], the EC50 is reported as > 195 µM (not active).
For `Cc1ccc(/C=C/C(=O)N2CC(C)CC(C)C2)o1` (stereo not drawn), the CC50 in [7] was > 40 µM (active). For the same compound, the AC50 in [11] was 22.8 µM (active). Besides, in experiment [5], the half-maximal effective concentration (EC50) was 24.5 µM (active).
As to `Cc1cccc(C)c1NC(=O)CN(C)C(=O)c1cc(S(=O)(=O)N(C)C)ccc1N1CCCC1`, the half-maximal activity concentration (AC50) in [3] is 27.1 µM (active).
As for `COc1cc(NC(=O)c2cc3ccccc3cc2OC)ccc1NC(=O)c1cccs1`, the EC50 in [6] is 14.1 µM (active). Further, the IC50 in the experiment on H9c2 is > 79 µM (inactive).
